Reference: ChEMBL document CHEMBL3885881, “DrugMatrix”

Organism: Rattus norvegicus
Test: DrugMatrix - Regimen: Daily Repeat
Assay type: toxicity, organism-based, Sprague-Dawley
Parameters: regimen Daily Repeat, gender Male, age 6-8 weeks
Settings: in vivo, po, route oral GAVAGE, vehicle 100 % WATER; for ABSOLUTE BASOPHIL / ABSOLUTE EOSINOPHIL / ABSOLUTE LYMPHOCYTE / ABSOLUTE MONOCYTE / ABSOLUTE SEGMENTED NEUTROPHIL / BASOPHIL / EOSINOPHIL / ERYTHROCYTE COUNT / HEMATOCRIT / HEMOGLOBIN / LEUKOCYTE COUNT / LYMPHOCYTE / MEAN CORPUSCULAR HEMOGLOBIN / MEAN CORPUSCULAR HEMOGLOBIN CONCENTRATION / MEAN CORPUSCULAR VOLUME / MONOCYTE / NEUTROPHIL / NUCLEATED RED BLOOD CELLS / PLATELET COUNT: tissue Blood; for ALANINE AMINOTRANSFERASE / ALBUMIN / ALKALINE PHOSPHATASE / ASPARTATE AMINOTRANSFERASE / BLOOD UREA NITROGEN / CARBON DIOXIDE / CHLORIDE / CHOLESTEROL / CREATINE PHOSPHOKINASE / CREATININE / GLUCOSE / LACTATE DEHYDROGENASE / LIPASE / PHOSPHORUS / POTASSIUM / SODIUM / TOTAL BILIRUBIN / TOTAL PROTEIN / URIC ACID: tissue Plasma
[1] = 4.5 mg/kg, 120 h, dose level Low, time 5 day
[2] = 45 mg/kg, 72 h, dose level High, time 3 day
[3] = 45 mg/kg, 120 h, dose level High, time 5 day

NN [HYDRAZINE]
ABSOLUTE BASOPHIL [1]: 0 CELLS/uL
ABSOLUTE EOSINOPHIL [1]: 61.33 CELLS/uL
ABSOLUTE LYMPHOCYTE [1]: 9152.67 CELLS/uL
ABSOLUTE MONOCYTE [1]: 216 CELLS/uL
ABSOLUTE SEGMENTED NEUTROPHIL [1]: 1236.67 CELLS/uL
BASOPHIL [1]: 0%
EOSINOPHIL [1]: 0.67%
ERYTHROCYTE COUNT [1]: 5.22 x10E6/uL
HEMATOCRIT [1]: 32.97%
HEMOGLOBIN [1]: 13.03 G/DL
LEUKOCYTE COUNT [1]: 10.67 x10E3/uL
LYMPHOCYTE [1]: 85.33%
MEAN CORPUSCULAR HEMOGLOBIN [1]: 25 pg
MEAN CORPUSCULAR HEMOGLOBIN CONCENTRATION [1]: 39.57 G/DL
MEAN CORPUSCULAR VOLUME [1]: 63.23 fL
MONOCYTE [1]: 2%
NEUTROPHIL [1]: 12%
NUCLEATED RED BLOOD CELLS [1]: 0 /100WBC
PLATELET COUNT [1]: 1367.67 x10E3/uL
ALANINE AMINOTRANSFERASE [1]: 34.33 u/L
ALBUMIN [1]: 4.27 G/DL
ALKALINE PHOSPHATASE [1]: 357 u/L
ASPARTATE AMINOTRANSFERASE [1]: 88.33 u/L
BLOOD UREA NITROGEN [1]: 18.33 mg/dL
CARBON DIOXIDE [1]: 28 mmol/L
CHLORIDE [1]: 100 MEQ/L
CHOLESTEROL [1]: 80 mg/dL
CREATINE PHOSPHOKINASE [1]: 469 u/L
CREATININE [1]: 0.17 mg/dL
GLUCOSE [1]: 135.67 mg/dL
LACTATE DEHYDROGENASE [1]: 538.33 u/L
LIPASE [1]: 11 u/L
PHOSPHORUS [1]: 11.77 mg/dL
POTASSIUM [1]: 5.73 MEQ/L
SODIUM [1]: 142.13 MEQ/L
TOTAL BILIRUBIN [1]: 0.13 mg/dL
TOTAL PROTEIN [1]: 5.87 G/DL
URIC ACID [1]: 1.37 mg/dL
ABSOLUTE BASOPHIL [2]: 0 CELLS/uL
ABSOLUTE EOSINOPHIL [2]: 101.33 CELLS/uL
ABSOLUTE LYMPHOCYTE [2]: 9888 CELLS/uL
ABSOLUTE MONOCYTE [2]: 143.33 CELLS/uL
ABSOLUTE SEGMENTED NEUTROPHIL [2]: 634 CELLS/uL
BASOPHIL [2]: 0%
EOSINOPHIL [2]: 1%
ERYTHROCYTE COUNT [2]: 5.85 x10E6/uL
HEMATOCRIT [2]: 35.23%
HEMOGLOBIN [2]: 13.87 G/DL
LEUKOCYTE COUNT [2]: 10.77 x10E3/uL
LYMPHOCYTE [2]: 91.67%
MEAN CORPUSCULAR HEMOGLOBIN [2]: 23.77 pg
MEAN CORPUSCULAR HEMOGLOBIN CONCENTRATION [2]: 39.43 G/DL
MEAN CORPUSCULAR VOLUME [2]: 60.27 fL
MONOCYTE [2]: 1.33%
NEUTROPHIL [2]: 6%
NUCLEATED RED BLOOD CELLS [2]: 0.33 /100WBC
PLATELET COUNT [2]: 1202 x10E3/uL
ALANINE AMINOTRANSFERASE [2]: 14 u/L
ALBUMIN [2]: 4.07 G/DL
ALKALINE PHOSPHATASE [2]: 403.33 u/L
ASPARTATE AMINOTRANSFERASE [2]: 77.67 u/L
BLOOD UREA NITROGEN [2]: 17.67 mg/dL
CARBON DIOXIDE [2]: 31.33 mmol/L
CHLORIDE [2]: 98.33 MEQ/L
CHOLESTEROL [2]: 44 mg/dL
CREATINE PHOSPHOKINASE [2]: 676.33 u/L
CREATININE [2]: 0.11 mg/dL
GLUCOSE [2]: 133.33 mg/dL
LACTATE DEHYDROGENASE [2]: 533 u/L
LIPASE [2]: 11 u/L
PHOSPHORUS [2]: 11.23 mg/dL
POTASSIUM [2]: 6.63 MEQ/L
SODIUM [2]: 138.67 MEQ/L
TOTAL BILIRUBIN [2]: 0.13 mg/dL
TOTAL PROTEIN [2]: 5.5 G/DL
URIC ACID [2]: 1.6 mg/dL
ABSOLUTE BASOPHIL [3]: 0 CELLS/uL
ABSOLUTE EOSINOPHIL [3]: 63.33 CELLS/uL
ABSOLUTE LYMPHOCYTE [3]: 8413.33 CELLS/uL
ABSOLUTE MONOCYTE [3]: 93 CELLS/uL
ABSOLUTE SEGMENTED NEUTROPHIL [3]: 730.33 CELLS/uL
BASOPHIL [3]: 0%
EOSINOPHIL [3]: 0.67%
ERYTHROCYTE COUNT [3]: 5.35 x10E6/uL
HEMATOCRIT [3]: 31.4%
HEMOGLOBIN [3]: 12.23 G/DL
LEUKOCYTE COUNT [3]: 9.3 x10E3/uL
LYMPHOCYTE [3]: 90.67%
MEAN CORPUSCULAR HEMOGLOBIN [3]: 22.9 pg
MEAN CORPUSCULAR HEMOGLOBIN CONCENTRATION [3]: 38.97 G/DL
MEAN CORPUSCULAR VOLUME [3]: 58.77 fL
MONOCYTE [3]: 1%
NEUTROPHIL [3]: 7.67%
NUCLEATED RED BLOOD CELLS [3]: 0 /100WBC
PLATELET COUNT [3]: 1463.33 x10E3/uL
ALANINE AMINOTRANSFERASE [3]: 14.67 u/L
ALBUMIN [3]: 4 G/DL
ALKALINE PHOSPHATASE [3]: 346 u/L
ASPARTATE AMINOTRANSFERASE [3]: 75.67 u/L
BLOOD UREA NITROGEN [3]: 18.67 mg/dL
CARBON DIOXIDE [3]: 25.33 mmol/L
CHLORIDE [3]: 99 MEQ/L
CHOLESTEROL [3]: 50.67 mg/dL
CREATINE PHOSPHOKINASE [3]: 391.33 u/L
CREATININE [3]: 0.11 mg/dL
GLUCOSE [3]: 153.33 mg/dL
LACTATE DEHYDROGENASE [3]: 326 u/L
LIPASE [3]: 11.33 u/L
PHOSPHORUS [3]: 11.23 mg/dL
POTASSIUM [3]: 6.42 MEQ/L
SODIUM [3]: 139.93 MEQ/L
TOTAL BILIRUBIN [3]: 0.2 mg/dL
TOTAL PROTEIN [3]: 5.37 G/DL
URIC ACID [3]: 1.4 mg/dL
